Laboratory results from ChEMBL document CHEMBL1201862, “PubChem BioAssay data set” (2004).
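Compound exposure: 48 hours, 5 concentrations, 96-well plates. GI50 = concentration required for 50% inhibition of growth.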 Active and inactive are the calls of the source. Cut-off read from the data, not from the text of the source: active = GI50 up to about 1.1 µM and inactive = higher.

How the values were obtained:
Assay in all cases: NCI tumour cell line growth inhibition, 48 h
KM-20L2 = system: KM-20L2
LXFL 529 = system: LXFL 529
RXF 631 = system: RXF 631
M19-MEL = system: M19-MEL
XF498 = system: XF498
PC-3 = system: PC-3
MDA-MB-231 = system: MDA-MB-231
DU-145 = system: DU-145
786-0 = system: 786-0

Row | SMILES | GI50 (KM-20L2) | GI50 (LXFL 529) | GI50 (RXF 631) | GI50 (M19-MEL) | GI50 (XF498) | GI50 (PC-3) | GI50 (MDA-MB-231) | GI50 (DU-145) | GI50 (786-0)
1 | NC(S)=Nc1cc(Cl)ccc1Cl | > 100 µM (inactive) | > 100 µM (inactive) | > 100 µM (inactive) | > 100 µM (inactive) | 94.6 µM (inactive) | – | – | – | –
2 | c1nc2nc[nH]c(SSc3[nH]cnc4ncnc3-4)c-2n1 | – | – | – | – | – | 1.23 µM (inactive) | – | – | –
3 | Cc1ccc(C(=O)C2CC3(CCC2(O)c2ccc(C)cc2)CC(=O)Nc2ccccc2C3=O)cc1 (centres undefined) | – | – | – | – | – | 7.05 µM (inactive) | > 100 µM (inactive) | > 100 µM (inactive) | –
4 | COc1nc(-c2cn(S(=O)(=O)c3ccc(C)cc3)c3ccc(Br)cc23)cc(C(F)(F)F)c1C#N | – | – | – | – | – | 47.4 µM (inactive) | – | 16.5 µM (inactive) | –
5 | CC1CN=C(Nc2cccc(C(F)(F)F)c2)S1 (centres undefined) | – | – | – | – | – | – | 28.1 µM (inactive) | 70.8 µM (inactive) | –
6 | CC(=O)Nc1ccc(C(=O)NN2C(=O)C(Cl)C2/C=C/c2ccccc2)cc1 (centres undefined) | – | > 100 µM (inactive) | – | > 100 µM (inactive) | – | – | – | – | –
7 | O=[N+]([O-])c1cc2ncc(-c3ccccc3)c(O)c2cc1/C(Cl)=C/c1ccccc1 | 17.7 µM (inactive) | – | – | 11.6 µM (inactive) | 8.24 µM (inactive) | – | – | – | –
8 | CC1(C)OC2COC3(CNO)OC(C)(C)OC3C2O1 (centres undefined) | – | – | – | > 100 µM (inactive) | – | – | – | – | > 100 µM (inactive)
9 | COc1ccc(OC)c(C(=O)/C=C/c2cc(O)c(O)cc2F)c1 | – | – | – | – | – | 4.18 µM (inactive) | 1.41 µM (inactive) | 0.817 µM (active) | 2.28 µM (inactive)
10 | CC(=O)/C=C/c1c[nH]c(=O)[nH]c1=O | 213 µM (inactive) | – | – | 390 µM (inactive) | 38.4 µM (inactive) | – | – | – | –
11 | Nc1nc(=O)n(CC(O)CO)s1 (centres undefined) | > 100 µM (inactive) | > 100 µM (inactive) | > 100 µM (inactive) | > 100 µM (inactive) | – | – | – | – | –
12 | CC(C)(C)[Si](C)(C)OCCOCn1cc(F)c(=O)[nH]c1=O | – | – | – | – | – | > 100 µM (inactive) | – | 36.5 µM (inactive) | > 100 µM (inactive)
13 | CC(C)(C)[Si](OC1CC(n2cnc3c(N)ncnc32)OC1CO)(c1ccccc1)c1ccccc1 (centres undefined) | 15.4 µM (inactive) | 34.6 µM (inactive) | – | 19.7 µM (inactive) | 10.4 µM (inactive) | – | – | – | –
14 | COc1ccc(-c2cc(-c3ccccc3)c(C#N)c(=O)n2C2OC(CO)C(O)C(O)C2O)cc1 (centres undefined) | > 100 µM (inactive) | > 100 µM (inactive) | > 100 µM (inactive) | > 100 µM (inactive) | – | – | – | – | > 100 µM (inactive)
15 | NC(=O)NN=C(CS)CS | 19.8 µM (inactive) | – | – | 17.5 µM (inactive) | < 0.01 µM (active) | – | – | – | –
16 | COc1ccc(N2C(=O)CSC2c2c[nH]c3ccccc23)cc1 (centres undefined) | – | – | – | – | – | 24.7 µM (inactive) | 72.9 µM (inactive) | 51.8 µM (inactive) | –
17 | O=C(NCCCCCCNC(=O)n1cc(F)c(=O)[nH]c1=O)NCCCOCCOCCCNC(=O)C(O)C(O)C(O)C(O)CO (centres undefined) | > 2.5 µM (inactive) | – | – | > 2.5 µM (inactive) | > 2.5 µM (inactive) | – | – | – | –
18 | S=C(N/N=C(/c1ccccc1)c1ccccn1)Nc1cccc(Cl)c1 | – | – | – | – | – | – | < 0.0202 µM (active) | 1.15 µM (inactive) | –
19 | Nc1ncnc2c1sc1nc3ccccc3n12 | – | – | – | – | – | > 100 µM (inactive) | 44.8 µM (inactive) | > 100 µM (inactive) | –

Row | SMILES | GI50 (KM-20L2) | GI50 (LXFL 529) | GI50 (RXF 631) | GI50 (M19-MEL) | GI50 (XF498) | GI50 (PC-3) | GI50 (MDA-MB-231) | GI50 (DU-145) | GI50 (786-0)
20 | Cc1[nH]c(=O)nc(S)c1C(=O)NC1C2CCCCC2NC2CCCCC21 (centres undefined) | – | – | – | – | – | 13.2 µM (inactive) | 14.9 µM (inactive) | 11.8 µM (inactive) | –
21 | O=C1CC(=O)N(c2ccccc2)N1/C(=C/c1ccccc1)c1ccccc1 | – | – | – | – | – | 15.7 µM (inactive) | 10.6 µM (inactive) | 24.4 µM (inactive) | –
22 | CCOC(=O)[C@H]1Nc2c(cccc2[N+](=O)[O-])[C@H]2OCC[C@@H]12 | > 100 µM (inactive) | > 100 µM (inactive) | > 100 µM (inactive) | > 100 µM (inactive) | > 100 µM (inactive) | – | – | – | –
23 | CN1C(=O)[C@@H]2[C@@H]3c4ccccc4N[C@@H]3c3[nH]c4ccccc4c3[C@@H]2C1=O | – | – | – | – | – | 17.4 µM (inactive) | 21 µM (inactive) | 41.7 µM (inactive) | –
24 | Cn1c(=O)[nH]c2c(c1=O)C(=O)CN2 | > 100 µM (inactive) | > 100 µM (inactive) | – | > 100 µM (inactive) | > 100 µM (inactive) | – | – | – | –
25 | Nc1c(Br)cc2c(c1Br)Cc1cc(Br)ccc1-2 | – | – | – | – | – | > 100 µM (inactive) | > 100 µM (inactive) | > 100 µM (inactive) | –
26 | CCSc1nc(N)c2c(-c3ccccc3)c3c(nc2n1)CCC3 | – | – | – | – | – | > 100 µM (inactive) | > 100 µM (inactive) | > 100 µM (inactive) | –
27 | N=C(N)NS(=O)(=O)c1ccc(Nc2c3ccccc3nc3c(C(=O)N4CCN(CCO)CC4)ccc(Cl)c23)cc1 | > 100 µM (inactive) | – | – | > 100 µM (inactive) | > 100 µM (inactive) | – | – | – | –
28 | C[C@]12C[C@H](O)[C@H]3[C@@H](CCC4=CC(=O)CC[C@@]43C)[C@@H]1CC[C@@H]2c1csc(-c2ccccc2)n1 | – | – | – | – | – | 3.32 µM (inactive) | 20.1 µM (inactive) | > 51.6 µM (inactive) | 25.2 µM (inactive)
29 | CN(C)c1ccc(C2ON=C(c3ccccc3)N2C23CC4CC(CC(C4)C2)C3)cc1 (centres undefined) | – | – | – | – | – | > 10 µM (inactive) | > 10 µM (inactive) | > 10 µM (inactive) | > 10 µM (inactive)
30 | C[Si](C)(C)CC(N)=O | > 100 µM (inactive) | > 100 µM (inactive) | > 100 µM (inactive) | > 100 µM (inactive) | > 100 µM (inactive) | – | – | – | > 100 µM (inactive)
31 | CC(C)(Br)C(Br)CCC(C)(Br)C(Br)CO (centres undefined) | – | – | – | – | – | > 10 µM (inactive) | > 10 µM (inactive) | > 10 µM (inactive) | > 10 µM (inactive)
32 | COc1ccc(-c2c(C#N)c(N)nc3c2CCS(=O)(=O)c2ccccc2-3)cc1 | – | – | – | – | – | > 100 µM (inactive) | > 100 µM (inactive) | > 100 µM (inactive) | 68.2 µM (inactive)
33 | Cc1cnc(SCCN2CCN(C)CC2)nc1-c1cc2ccccc2s1 | – | 13.8 µM (inactive) | – | – | – | – | – | – | 12 µM (inactive)
34 | COc1ccccc1NC(=O)/C(Cc1nc2ccc([N+](=O)[O-])cc2nc1O)=N\NC(=O)C[N+](C)(C)C | – | – | – | – | – | > 100 µM (inactive) | > 100 µM (inactive) | > 100 µM (inactive) | 68.7 µM (inactive)
35 | O=C(N/N=C\C(F)(F)F)c1ccncc1 | – | – | – | – | – | 26.9 µM (inactive) | – | 8.57 µM (inactive) | –
36 | N/N=C1/C2CN3CCN(C2)CC1(c1ccc([N+](=O)[O-])cc1)C3 | – | – | – | – | – | > 100 µM (inactive) | > 100 µM (inactive) | > 100 µM (inactive) | > 100 µM (inactive)
37 | O=C(/C=C/c1ccc(O)c(O)c1)O[C@H]1CCCC[C@@H]1OC(=O)/C=C/c1ccc(O)c(O)c1 | – | – | – | – | – | 15.6 µM (inactive) | 20.5 µM (inactive) | 13.8 µM (inactive) | 7.48 µM (inactive)
38 | CCN(CC)c1ccc2cc(C(=O)Nc3ccc4[nH]c(C(=O)N5C[C@@H](CCl)c6c5cc(OC(=O)Nc5ccccc5)c5[nH]cc(C)c65)cc4c3)oc2c1 [CARZELESIN] | 944 µM (inactive) | – | – | 0.000316 µM (active) | – | – | – | – | –
